# According to patent US20070117743A1, “New antitumoral compounds” (priority 2003, published 2007):
# Where two headings read alike, the source gives them in different places. Where a SMILES comes first, the peptide text is derived from it. Bridges are numbered along the chain shown (N, C = ends). [ ]: non-standard residue; d: D form. The star is where a group is joined. d(aIle) = CC[C@H](C)[C@@H](N)C(=O)O; d(aThr) = C[C@@H](O)[C@@H](N)C(=O)O; Hexanoyl(5-Me) = CC(C)CCCC(=O)*; Orn = NCCC[C@H](N)C(=O)O; Aib = CC(C)(N)C(=O)O
# Assays:
# Format in all cases: cell-based, human
# A-549 = assay: SRB colorimetric assay of cell growth and viability, A-549; conditions: 48 hours exposure, SRB; for GI50: read-out: GI50 A-549; for CC50: read-out: LC50 A-549
# SK-MEL-28 = assay: SRB colorimetric assay of cell growth and viability, SK-MEL-28; conditions: 48 hours exposure; for CC50: read-out: LC50 MEL-28
# HT-29 = assay: SRB colorimetric assay of cell growth and viability, HT-29; conditions: 48 hours exposure, SRB; for GI50: read-out: GI50 HT-29; for CC50: read-out: LC50 HT-29
# LoVo = assay: SRB colorimetric assay of cell growth and viability, LoVo; conditions: 48 hours exposure, SRB; for CC50: read-out: LC50 LOVO
# LoVo-Dox = assay: SRB colorimetric assay of cell growth and viability, LoVo-Dox; conditions: 48 hours exposure, SRB; for CC50: read-out: LC50 LOVO-DOX
# Method in brief: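 Sulforhodamine B assay run after 48 h of continuous drug contact; cells seeded 5×10^3/well in RPMI 1640 10% FBS, attached 18 h. Triplicate OD490 values give cytostatic (TGI), cytotoxic (LC) and GI parameters.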
# DU-145 = assay: SRB colorimetric assay of cell growth and viability, DU-145; conditions: 48 hours exposure
# LNCaP = assay: SRB colorimetric assay of cell growth and viability, LNCaP; conditions: 48 hours exposure; for GI50: read-out: GI50 LN-caP; for CC50: read-out: LC50 LN-caP
# SK-BR-3 = assay: SRB colorimetric assay of cell growth and viability, SK-BR-3; conditions: 48 hours exposure
# IGROV-1 = assay: SRB colorimetric assay of cell growth and viability, IGROV-1; conditions: 48 hours exposure
# IGROV-ET = assay: SRB colorimetric assay of cell growth and viability, IGROV-ET; conditions: 48 hours exposure; for CC50: read-out: LC50 IGROV-ET
# HeLa = assay: SRB colorimetric assay of cell growth and viability, HeLa; conditions: 48 hours exposure, SRB; for CC50: read-out: LC50 HELA
# HeLa-APL = assay: SRB colorimetric assay of cell growth and viability, HeLa-APL; conditions: 48 hours exposure, SRB; for CC50: read-out: LC50 HELA-APL
# K-562 = assay: SRB colorimetric assay of cell growth and viability, K-562; conditions: 48 hours exposure, SRB; for CC50: read-out: LC50 K-562
# PANC-1 = assay: SRB colorimetric assay of cell growth and viability, PANC-1; conditions: 48 hours exposure, SRB; for CC50: read-out: LC50 PANC-1
smiles,measurement,setting,value
"C/C=C1\NC(=O)[C@@H](Cc2ccccc2)NC(=O)[C@H](C(C)C)NC(=O)[C@H]([C@H](C)CC)NC(=O)[C@@H](NC(=O)[C@@H](NC(=O)[C@@H](CCCN)NC(=O)[C@@H]2CCCN2C(=O)[C@@H](NC(=O)[C@H](NC(=O)[C@H](NC(=O)[C@@H](NC(=O)CCCC(C)C)C(C)C)[C@H](C)O)C(C)C)C(C)C)[C@H](C)CC)[C@H](C)OC(=O)[C@@H](C(C)C)NC1=O [Compound 69, [D-Val^1, D-Phe^3, Val^4, alo-Ile^5, alo-Thr^6, alo-Ile^7, D-Orn^8, Pro^9, Val^10, D-Val^11, D-Thr^12, Val^13] KF]",TGI A-549,A-549,6.77E−06 Molar
same,GI50,A-549,≥ 6.77 µM
same,CC50,A-549,≥ 6.77 µM
same,GI50,SK-MEL-28; SRB,≥ 6.77 µM
same,TGI MEL-28,SK-MEL-28; SRB,6.77E−06 Molar
same,CC50,SK-MEL-28; SRB,≥ 6.77 µM
same,TGI HT-29,HT-29,6.77E−06 Molar
same,GI50,HT-29,≥ 6.77 µM
same,CC50,HT-29,≥ 6.77 µM
same,GI50,LoVo,≥ 6.77 µM
same,TGI LOVO,LoVo,6.77E−06 Molar
same,CC50,LoVo,≥ 6.77 µM
same,GI50,LoVo-Dox,≥ 6.77 µM
same,TGI LOVO-DOX,LoVo-Dox,6.77E−06 Molar
same,CC50,LoVo-Dox,≥ 6.77 µM
same,GI50,DU-145; SRB,≥ 6.77 µM
same,LC50 (concentration causing 50% net cell kill),DU-145; SRB,≥ 6.77 µM
same,TGI DU-145,DU-145; SRB,6.77E−06 Molar
same,TGI LN-caP,LNCaP; SRB,6.77E−06 Molar
same,GI50,LNCaP; SRB,2.35 µM
same,CC50,LNCaP; SRB,≥ 6.77 µM
same,GI50,SK-BR-3; SRB,6.72 µM
same,LC50,SK-BR-3; SRB,≥ 6.77 µM
same,TGI SK-BR-3,SK-BR-3; SRB,6.77E−06 Molar
same,GI50,IGROV-1; SRB,4.37 µM
same,LC50 (concentration causing 50% net cell killing),IGROV-1; SRB,≥ 6.77 µM
same,TGI IGROV,IGROV-1; SRB,6.77E−06 Molar
same,GI50,IGROV-ET; SRB,≥ 6.77 µM
same,TGI IGROV-ET,IGROV-ET; SRB,6.77E−06 Molar
same,CC50,IGROV-ET; SRB,≥ 6.77 µM
same,GI50,HeLa,≥ 6.77 µM
same,TGI HELA,HeLa,6.77E−06 Molar
same,CC50,HeLa,≥ 6.77 µM
same,GI50,HeLa-APL,≥ 6.77 µM
same,TGI HELA-APL,HeLa-APL,6.77E−06 Molar
same,CC50,HeLa-APL,≥ 6.77 µM
same,GI50,K-562,≥ 6.77 µM
same,TGI K-562,K-562,6.77E−06 Molar
same,CC50,K-562,≥ 6.77 µM
same,GI50,PANC-1,≥ 6.77 µM
same,TGI PANC-1,PANC-1,6.77E−06 Molar
same,CC50,PANC-1,≥ 6.77 µM
"CC[C@H](C)[C@@H](NC(=O)[C@H](CCCN)NC(=O)[C@H]1CCCN1C(=O)[C@H](NC(=O)[C@@H](NC(=O)[C@@H](NC(=O)[C@H](NC(=O)CCCC(C)C)C(C)C)[C@@H](C)O)C(C)C)C(C)C)C(=O)N[C@H]1C(=O)N[C@H]([C@@H](C)CC)C(=O)N[C@H](C(C)C)C(=O)N[C@@H](Cc2ccccc2)C(=O)NC(C)(C)C(=O)N[C@@H](C(C)C)C(=O)O[C@@H]1C [Compound 66, [Aib^2]-KF] ({Hexanoyl(5-Me)}-[dV]TV[dV][dP][Orn][d(aIle)][d(aThr)][d(aIle)][dV]F[Aib]V; ester 8-C)",TGI A-549,A-549,6.76E−06 Molar
same,GI50,A-549,4.96 µM
same,CC50,A-549,≥ 6.76 µM
same,GI50,SK-MEL-28,2.24 µM
same,TGI MEL-28,SK-MEL-28,6.14E−06 Molar
same,CC50,SK-MEL-28; SRB,≥ 6.76 µM
same,TGI HT-29,HT-29,2.54E−06 Molar
same,GI50,HT-29,1.28 µM
same,CC50,HT-29,5.06 µM
same,GI50,LoVo,1.3 µM
same,TGI LOVO,LoVo,2.47E−06 Molar
same,CC50,LoVo,4.71 µM
same,GI50,LoVo-Dox,1.07 µM
same,TGI LOVO-DOX,LoVo-Dox,2.26E−06 Molar
same,CC50,LoVo-Dox,4.8 µM
same,GI50,DU-145,1.36 µM
same,TGI DU-145,DU-145,2.73E−06 Molar
same,LC50 (concentration causing 50% net cell kill),DU-145; SRB,5.45 µM
same,TGI LN-caP,LNCaP,6.76E−06 Molar
same,CC50,LNCaP; SRB,≥ 6.76 µM
same,GI50,LNCaP,4.63 µM
same,GI50,SK-BR-3,1.49 µM
same,TGI SK-BR-3,SK-BR-3,2.67E−06 Molar
same,LC50,SK-BR-3; SRB,4.77 µM
same,GI50,IGROV-1,1.57 µM
same,TGI IGROV,IGROV-1,2.82E−06 Molar
same,LC50 (concentration causing 50% net cell killing),IGROV-1; SRB,5.05 µM
same,GI50,IGROV-ET,1.21 µM
same,TGI IGROV-ET,IGROV-ET,2.43E−06 Molar
same,CC50,IGROV-ET; SRB,4.89 µM
same,GI50,HeLa,3.17 µM
same,TGI HELA,HeLa,6.76E−06 Molar
same,CC50,HeLa,≥ 6.76 µM
same,GI50,HeLa-APL,3.41 µM
same,TGI HELA-APL,HeLa-APL,6.76E−06 Molar
same,CC50,HeLa-APL,≥ 6.76 µM
same,GI50,K-562,≥ 6.76 µM
same,TGI K-562,K-562,6.76E−06 Molar
same,CC50,K-562,≥ 6.76 µM
same,GI50,PANC-1,≥ 6.76 µM
same,TGI PANC-1,PANC-1,6.76E−06 Molar
same,CC50,PANC-1,≥ 6.76 µM
